Test results published in patent US9713613B2, “Methods and compositions for the treatment of cancer and related hyperproliferative disorders” (priority 2007, dated 2017).

What was measured:
mice (129Sv background) = experiment: mice, 48 hrs fasting / 48 hrs refeeding fat free diet; assay type: in vivo
Description: The drug-like chemical structure of fatostatin A prompted the inventors to investigate its ability to inhibit SREBP-1 in the liver of whole animals. The effect of fatostatin A on hepatic SREBP-1 under lipogenic conditions of prolonged fasting (48 hours) followed by feeding fat free high carbohydrate diet for another 48 hours was examined. Mice were intraperitoneally injected with fatostatin A at 30 mg/kg/day for 5 days starting one day prior to the 48-hour fasting period. After 48 hours of fasting, the treated group lost more weight than the control group did (6.12±0.6 compared to 4.9±0.3 gram/mouse; p=0.01.) (FIG. 6A).
The expression levels of SREBP-1 in the liver extracts were examined by western blots. […] The hepatic expression of fatty acid synthase (FAS), a representative of SREBP-1-responsive lipogenic enzymes (Boizard et al., 1998), was also determined after the treatment. […] The activity of acetyl-CoA carboxylase (ACC) (FIG. 6F), which is also regulated by SREBP-1, decreased in liver extracts as observed for FAS (FIG. 6G).
Male mice (129Sv background) were housed under controlled conditions (12-hr light/dark cycle; 25° C.) in the Animal Care Center at Baylor College of Medicine and had ad libitum access to standard laboratory chow (Purina Mills) and water. Fatostatin A was administered intraperitoneally (30 mg/kg; 150 μL) to 5-6 month old male mice (129Sv background) using two different protocols. First protocol involves fasting the mice for 48 hrs, followed by refeeding fat free diet for another 48 hrs. This treatment induces both activities and levels of lipogenic enzymes such as ACC and FAS in addition to SREBPs. The administration of fatostatin A or 10% DMSO in PBS to control groups (n=5) started 24 hrs before the fasting and continued daily until the end of the experiment.
In the second protocol, two groups of male mice (n=5) were treated daily for two weeks with either 30 mg/kg fatostatin A or 10% DMSO in PBS. Food intake and body weight were measured daily. At the end of the experiments, the mice were briefly fasted for 4-5 hrs, and their blood was withdrawn for determination of serum constituents. The mice were then sacrificed, and their livers were quickly removed and ground to powder in liquid nitrogen. The powdered tissues were suspended in 10 ml of PBS containing 0.1 mM PMSF, 5 mM benzamidine, and 5 mg/mL protease inhibitor cocktail (Roche), homogenized using Polytron (3×30 Sec, at a high speed), and sonicated briefly to degrade DNA. The extracts were clarified by centrifugation at 16,000×g for 20 min. The samples were then subjected to western blot analysis using commercially available antibodies against FAS and SREBP-1. FAS and ACC activities were determined as described earlier (Mao et al., 2006).

ob/ob mice = experiment: GC-MS analyses of fatty acids in the livers of ob/ob mice; assay type: in vivo, mouse
Description: Liver samples (100 mg) obtained from fatostatin A-treated ob/ob mice and non-treated control mice and stored at −80° C. until analyzed for fatty acid contents. The fatty acids were extracted according to Folch's protocol and quantitatively analyzed using gas chromatography-mass spectrometry (GC-SM). As shown in the above table, there is about 50% reduction of C14:0 and C16:0, the products of the de novo fatty acid synthesis, and about 70% reduction of monounsaturated fatty acids C16:1, C18:1 and C20:1 and their elongation-desaturation products (C18:2)N-6, (C18:3)N-6, (C20:2)N-6, (C20-3)N-6 and (C20:5)N-3. Myristate (C14:0) and palmitate (C16:0), the products of FAS, were reduced by about 50% (P<0.05). There was no change in C18 levels, which is derived not only from de novo fatty acid synthesis by FAS, but also from food and chain elongation system. […] Also, the levels of polyunsaturated long-chain fatty acids (18:2)N-6, (18:3)N-6, (20:2)N-6, (20:3)N-6 and (20:5)N-3 were reduced 30-60%. These reductions are the result of down regulation of key enzymes in the lipogenic pathways (FAS, ACC and SCD, ACL) at transcription and translation.
Four- to 5-week old homozygous male obese (ob/ob) mice (C57BL/6J, The Jackson Laboratory, Bar Harbor, Me.) were housed under controlled conditions (12-hr light/dark cycle; 25° C.). The animals were housed 5 per cage and had ad libitum access to standard laboratory chow (Purina Mills, Richmond Ind.) and water for one week after their arrival. On first day of the experiment and every day thereafter the weight of the mice and the amount of the food consumed were measured. The weight of mice and food remaining were measured daily between 3-5 p.m. before the ip injection of fatostatin A (30 mg/kg; 150 μL). The administration of Fatostatin A or 10% DMSO in PBS to control groups (n=5) continued daily for four weeks till the end of the study.

SUM159 cells = experiment: SUM159 cell growth, WST-1 assay, and lipogenic gene expression; assay type: cell-based, human
Description: Cells were seeded onto 96 well plates at a density of 10000 cells/well in 100 ul medium containing 2% charcoal stripped serum. After 24 hours, compound 19 was added to the cells at the indicated concentrations for another 48 hours. Cell viability was determined using WST-1 assay.
Cells seeded onto 96 well plates at a density of 5000 cells/well in 100 μl medium containing 2% charcoal treated serum. After 24 hours different concentrations of compound 19 were added for an additional 48 hours. Cell viability was measured using WST-1 Cell Viability and Proliferation Assay (ScienCell Research Laboratory, Carlsbad Calif.). Changes in expression levels of lipogenic genes mRNA was determined in cells that were treated with 10 μM. […] Insig2 gene which is not known to be regulated by these transcription factors was not affected by the treatment (FIG. 33B).

SMILES: CCCc1cc(-c2nc(-c3ccc(C)cc3)cs2)ccn1 [Compound 1, 2-propyl-4-(4-p-tolylthiazol-2-yl)pyridine]
- decrease of FAS expression level in liver extracts (western blot) (mice (129Sv background); 30 mg/kg/day ip): up to 30%
- food intake and toxicity during the treatment (mice (129Sv background); 30 mg/kg/day ip for 5 days): No reduction of food intake or obvious toxicity
- weight lost after 48 hours of fasting (mice (129Sv background); 30 mg/kg/day ip, control 4.9±0.3): 6.12±0.6 gram/mouse
- serum glucose (mice (129Sv background); after 48 hours of refeeding fat free high carbohydrate diet, control 137±14): 110 ± 23 mg/dL
- serum LDL (mice (129Sv background); after 48 hours of refeeding, control 30±6): 16 ± 5 mg/dL
- serum cholesterol (mice (129Sv background); after 48 hours of refeeding, control 120±19): 93 ± 20 mg/dL
- Fatty Acid (14:0) Ratio treated:control (ob/ob mice; ob/ob mice liver): 0.5148
- Fatty Acid (16:0) Ratio treated:control (ob/ob mice; ob/ob mice liver): 0.4367
- Fatty Acid (16:1) Ratio treated:control (ob/ob mice; ob/ob mice liver): 0.3285
- Fatty Acid (18:0) Ratio treated:control (ob/ob mice; ob/ob mice liver): 1.066
- Fatty Acid (18:1) Ratio treated:control (ob/ob mice; ob/ob mice liver): 0.2922
- Fatty Acid (18:2)N-6 Ratio treated:control (ob/ob mice; ob/ob mice liver): 0.638
- Fatty Acid (18:3)N-3 Ratio treated:control (ob/ob mice; ob/ob mice liver): 1.218
- Fatty Acid (18:3)N-6 Ratio treated:control (ob/ob mice; ob/ob mice liver): 0.4232
- Fatty Acid (20:0) Ratio treated:control (ob/ob mice; ob/ob mice liver): 0.8517
- Fatty Acid (20:1) Ratio treated:control (ob/ob mice; ob/ob mice liver): 0.3245
- Fatty Acid (20:2)N-6 Ratio treated:control (ob/ob mice; ob/ob mice liver): 0.4668
- Fatty Acid (20:3)N-6 Ratio treated:control (ob/ob mice; ob/ob mice liver): 0.6297
- Fatty Acid (20:4)N-6 Ratio treated:control (ob/ob mice; ob/ob mice liver): 1.125
- Fatty Acid (20:5)N-3 Ratio treated:control (ob/ob mice; ob/ob mice liver): 0.6994
- Fatty Acid (22:0) Ratio treated:control (ob/ob mice; ob/ob mice liver): 1.266
- Fatty Acid (22:1) Ratio treated:control (ob/ob mice; ob/ob mice liver): 0.871
- Fatty Acid (22:4)N-6 Ratio treated:control (ob/ob mice; ob/ob mice liver): 0.959
- Fatty Acid (22:5)N-3 Ratio treated:control (ob/ob mice; ob/ob mice liver): 0.7357
- Fatty Acid (22:5)N-6 Ratio treated:control (ob/ob mice; ob/ob mice liver): 1.18
- Fatty Acid (22:6)N-3 Ratio treated:control (ob/ob mice; ob/ob mice liver): 1.058
- Fatty Acid (24:0) Ratio treated:control (ob/ob mice; ob/ob mice liver): 1.308
- Fatty Acid (24:1) Ratio treated:control (ob/ob mice; ob/ob mice liver): 1.699
- Fatty Acid (16:0) in liver (ob/ob mice; treated ob/ob mice): 37100 ± 3660 nmol/g liver
- Fatty Acid (16:1) in liver (ob/ob mice; treated ob/ob mice): 11400 ± 228 nmol/g liver
- Fatty Acid (18:0) in liver (ob/ob mice; treated ob/ob mice): 15100 ± 916 nmol/g liver
- Fatty Acid (18:1) in liver (ob/ob mice; treated ob/ob mice): 44500 ± 8840 nmol/g liver
- Fatty Acid (18:2)N-6 in liver (ob/ob mice; treated ob/ob mice): 29700 ± 2460 nmol/g liver
- Fatty Acid (20:0) in liver (ob/ob mice; treated ob/ob mice): 164 ± 22.9 nmol/g liver
- Fatty Acid (22:0) in liver (ob/ob mice; treated ob/ob mice): 116 ± 26 nmol/g liver
- Fatty Acid (24:0) in liver (ob/ob mice; treated ob/ob mice): 158 ± 7.02 nmol/g liver
- increase in C24:0 in livers (ob/ob mice; vs untreated control mice): 30%
- lowering of C20:0 in livers (ob/ob mice; vs untreated control mice): about 15%
- reduction of (18:2)N-6, (18:3)N-6, (20:2)N-6, (20:3)N-6 and (20:5)N-3 in livers (ob/ob mice; vs untreated control mice): 30-60%
- reduction of (C18:2)N-6, (C18:3)N-6, (C20:2)N-6, and (C20-3)N-6 in livers (ob/ob mice; vs untreated control mice): about 50%
- reduction of C14:0 and C16:0 in livers (ob/ob mice; vs untreated control mice): about 50%
- reduction of monounsaturated fatty acids C16:1, C18:1 and C20:1 in livers (ob/ob mice; vs untreated control mice): about 70%

SMILES: CCCc1cc(-c2nc(-c3ccc(NS(C)(=O)=O)cc3)cs2)ccn1 [Compound 19, N-(4-(2-(2-propylpyridin-4-yl)thiazol-4-yl)phenyl)methanesulfonamide]
- expression levels of lipogenic genes mRNA under the control of SREBPs (SUM159 cells; 10 μM, Insig2 not affected): significant downregulation
- cell growth / viability (SUM159 cells; different concentrations, 48 hours, 2% charcoal treated serum): inhibition of cell growth and a toxic effect
